Laboratory results from the NIST ThermoML archive (doi:10.1016/j.jct.2013.01.032).
Numbers after ± are expanded uncertainties.

What was measured:
[1] = mn = molality of the nth substance listed, in mol/kg; settings: 101 kPa, Liquid; for speed of sound: Sing-around technique in a fixed-path interferometer; for mass density: Vibrating tube method
[2] = osmotic coefficient (dimensionless); mn = molality of the nth substance listed, in mol/kg; settings: 323.15 K, Liquid, Knauer Osmometer

CCCCn1cc[n+](C)c1.O=S(=O)([O-])C(F)(F)F [1-butyl-3-methylimidazolium trifluoromethanesulfonate] + CCCO
[1]
Settings | mass density, 293.15 K [kg/m3] | mass density, 308.15 K [kg/m3] | mass density, 323.15 K [kg/m3] | speed of sound, 293.15 K [m/s] | speed of sound, 308.15 K [m/s] | speed of sound, 323.15 K [m/s]
m1 = 0.05 | 808.59 ± 0.23 | 796.51 ± 0.23 | 784.03 ± 0.23 | 1225.2 ± 0.8 | 1174.1 ± 0.8 | 1123.8 ± 0.8
m1 = 0.101 | 813.12 ± 0.22 | 801.04 ± 0.23 | 788.57 ± 0.23 | 1225.9 ± 0.8 | 1175.1 ± 0.8 | 1125.1 ± 0.8
m1 = 0.15 | 817.38 ± 0.22 | 805.31 ± 0.22 | 792.86 ± 0.23 | 1226.2 ± 0.8 | 1176 ± 0.8 | 1126.3 ± 0.8
m1 = 0.2 | 821.64 ± 0.19 | 809.57 ± 0.22 | 797.12 ± 0.16 | 1226.7 ± 0.8 | 1176.8 ± 0.8 | 1127.3 ± 0.8
m1 = 0.25 | 825.82 ± 0.21 | 813.75 ± 0.21 | 801.31 ± 0.22 | 1227.4 ± 0.8 | 1177.6 ± 0.8 | 1128.4 ± 0.8
m1 = 0.758 | 864.71 ± 0.19 | 852.6 ± 0.2 | 840.18 ± 0.2 | 1232.4 ± 0.9 | 1184.8 ± 0.8 | 1137.7 ± 0.8
m1 = 1.004 | 881.36 ± 0.18 | 869.23 ± 0.18 | 856.81 ± 0.18 | 1235 ± 0.9 | 1188.2 ± 0.9 | 1141.9 ± 0.8
m1 = 1.258 | 897.18 ± 0.17 | 885.04 ± 0.17 | 872.62 ± 0.18 | 1237.6 ± 0.9 | 1191.7 ± 0.9 | 1146.2 ± 0.8
m1 = 1.524 | 912.6 ± 0.16 | 900.41 ± 0.16 | 887.99 ± 0.17 | 1241.2 ± 0.9 | 1195.4 ± 0.9 | 1150.5 ± 0.9
m1 = 1.771 | 925.96 ± 0.15 | 913.75 ± 0.16 | 901.33 ± 0.16 | 1243.6 ± 0.9 | 1198.7 ± 0.9 | 1154.5 ± 0.9
m1 = 2.021 | 938.44 ± 0.15 | 926.22 ± 0.15 | 913.81 ± 0.16 | 1246.4 ± 0.9 | 1202 ± 0.9 | 1158.4 ± 0.9
m1 = 2.517 | 960.93 ± 0.14 | 948.73 ± 0.15 | 936.31 ± 0.15 | 1251.9 ± 1 | 1208.4 ± 0.9 | 1165.7 ± 0.9
m1 = 3.011 | 981.02 ± 0.14 | 968.77 ± 0.15 | 956.37 ± 0.15 | 1257.1 ± 1 | 1214.8 ± 1 | 1172.9 ± 0.9

[2]
Settings | osmotic coefficient
m1 = 0.0299 | 0.906 ± 0.016
m1 = 0.0473 | 0.817 ± 0.014
m1 = 0.0849 | 0.775 ± 0.015
m1 = 0.0975 | 0.755 ± 0.015
m1 = 0.2019 | 0.66 ± 0.017
m1 = 0.2968 | 0.612 ± 0.018
m1 = 0.4022 | 0.575 ± 0.019
m1 = 0.5062 | 0.549 ± 0.02
m1 = 0.8045 | 0.494 ± 0.022
m1 = 1.206 | 0.445 ± 0.023
m1 = 1.64 | 0.412 ± 0.024
m1 = 2.044 | 0.39 ± 0.025
m1 = 2.44 | 0.378 ± 0.025
m1 = 2.829 | 0.361 ± 0.026
m1 = 3.316 | 0.34 ± 0.026
